One assay addresses T1, DMBT1pbs1 (Homo sapiens, UniProt Q9UGM3).
T1 construct: purchased Eurogentec, Belgium
It is filed as binding. Details: key: +++: no difference in aggregation compared to reference; ++: moderate inhibition of aggregation over the entire time course or maximal aggregation delayed by 1-5-min compared to reference; +: strong inhibition of aggregation over the entire time course or maximal aggregation delayed by 5-10 min compared to reference; −: complete inhibition of aggregation after 10 min. Here is the method:
Streptococcus mutans (Ingbritt), Streptococcus gordonii (HG 222 and DSM20568), Escherichia coli (F7 and OM36-1), and Helicobacter pylori (ATCC 43504) were gown and processed as described earlier. Salmonella typhimurium (strain SF1399: wild type; strain SF1195: Rc chemotype; strain SF1567: Rd1 chemotype; strain SF1398: Re chemotype) were kindly provided by Dr. Ben Appelmelk from the Free University of Amsterdam, The Netherlands, and were grown and processed as previously described for E. coli. The bacteria were diluted in the buffers depicted previously to a final OD700 of 0.5 or 1.0 corresponding to about 0.5 and 1.0×10^9 cells/ml respectively.
For quantitative measurements of bacterial aggregation, we added 200 μl peptide stock solution (1 mg/ml in 10% DMSO) diluted with 300 μl TBS containing 0.1% v/v Tween 20 and 1 mM CaCl2 (TBS-TC) to 500 μl of the respective bacterial suspensions to obtain final peptide concentrations of […]. As controls, we used bacterial suspensions, to which 200 μl 10% (v/v %) DMSO in H2O and 300 μl TBS-TC were added. Bacterial aggregation was monitored by measuring the optical density at 700 nm in intervals of 1 min for 1 h in a spectrophotometer (UVICON 930, Kontron Instruments). For the semi-quantitative high-throughput competition assays, we first determined the allowed pH range for DMBT1pbs1-mediated aggregation of S. gordonii and E. coli by using TBS-TC adjusted with either HCl or NaOH. […] For monitoring competitive effects, we preincubated 20 μl of the DMBT1pbs1 stock solution (20 μg) with 20 μl of the respective substance solutions in 48-well microtiter plates at room temperature (RT) for 2 min. As reference served 20 μl 10% (v/v) DMSO solution in H2O mixed with 20 μl of the solvents of the respective substances. Afterwards, 100 μl of S. gordonii or E. coli (resuspended in TBS-TC or TBS-T, respectively, for the calcium-free assays) solution was added simultaneously to each well using a multichannel pipette. Bacterial aggregation was compared to the reference by visual inspection over a time course of 10 min. The scoring system was: (+++) no difference in aggregation compared to reference. (++) moderate inhibition of aggregation over the entire time course or maximal aggregation delayed by 1-5-min compared to reference; (+) strong inhibition of aggregation over the entire time course or maximal aggregation delayed by 5-10 min compared to reference; (−) complete inhibition of aggregation after 10 min. Each experiment was at least done in triplicate.
Sucrose, maltose, dextrose, and the various salts tested were standard reagents obtained from Merck or Sigma. […] The following substances were obtained from Sigma with catalogue numbers in brackets: heparansulfate (H-7640), chondroitinsulfate B (C-3788), azoxymethane (A-9517), N-nitrosodiethlylamine (N-0258), streptococcus sanguis LTA (L-3765), Staphylococcus aureus LTA (L-2515), Escherichia coli LPS (L-3012), Klebsiella pneumoniae LPS (L-1770), Salmonella typhimurium LPS (L-6511), Salmonella minnesota LPS (chemotype Rd1; L-9391), L-α-phosphatidylcholine (P-279), CUROSURF™ with 80 mg/ml phospholipids from pig surfactant (54 mg/ml phosphatidylcholine and 30-5 mg/ml D-palmitoylphosphatidylcholine; overall: 99% polar phospholipids and 1% proteins) was obtained from Dey (Napa; Italy), and sIgA was purchased from Sigma. The dNTPs and the dNTP-Mix were from Roche Diagnostics. The DNA used in all experiments was the 4.7-kb plasmid pEGFP-N1 from Clontech.

In a further assay the test system is Salmonella typhimurium. As to the kind of experiment: Salmonella typhimurium binding to immobilized DMBT1 or peptide. Conditions: Rd1 and Re chemotype versus wild type. The procedure: Salivary DMBT1 (salivary agglutinin; DMBT1^SAG; hereafter referred to as DMBT1) was obtained from parotid saliva of healthy volunteer donors collected with Lashley cups. For confirmatory experiments of DMBT1 interaction partners, initial studies with Salmonella strains, and HIV studies we used DMBT1 purified to about 95% homogeneity by the procedure described before. The concentration was determined by the BCA Protein Assay Kit (Pierce) according to the instructions of the manufacturer. […] For partial purification, 50 ml parotid saliva was incubated for 0.5 to 1 h in ice water, in order to promote the formation of a precipitate. After centrifugation for 20 min (4° C.; 5,000 g), the pellet was resuspended in 1.0 to 2.5 ml PBS. In order to determine the DMBT1 concentrations within the samples, serial dilutions of the preparations were compared to serial dilutions of purified recombinant DMBT1 (rDMBT1) by ELISA and the adjusted concentrations were confirmed by Western blotting (see below).
Streptococcus mutans (Ingbritt), Streptococcus gordonii (HG 222 and DSM20568), Escherichia coli (F7 and OM36-1), and Helicobacter pylori (ATCC 43504) were gown and processed as described earlier. […]

Assay [1] has as its target T2, rDMBT1 binding to HIV-gp120 (Homo sapiens, UniProt Q9UGM3, G1295S/L1336F/T649M).
T2 construct: made in house; host or cells: rDMBT1 from T-REx-CHO
In words: Effects of DSS and dextran on rDMBT1 binding to HIV-gp120. Conditions: 100 μg/ml DSS or dextran; rDMBT1 2 μg/ml; gp120 1 μg/ml. The source says: Values are means of five independent experiments.

Read-outs that look alike come from different tables or passages of the source.

T2 sequence (Q9UGM3 20-2413 T649M/G1295S/L1336F): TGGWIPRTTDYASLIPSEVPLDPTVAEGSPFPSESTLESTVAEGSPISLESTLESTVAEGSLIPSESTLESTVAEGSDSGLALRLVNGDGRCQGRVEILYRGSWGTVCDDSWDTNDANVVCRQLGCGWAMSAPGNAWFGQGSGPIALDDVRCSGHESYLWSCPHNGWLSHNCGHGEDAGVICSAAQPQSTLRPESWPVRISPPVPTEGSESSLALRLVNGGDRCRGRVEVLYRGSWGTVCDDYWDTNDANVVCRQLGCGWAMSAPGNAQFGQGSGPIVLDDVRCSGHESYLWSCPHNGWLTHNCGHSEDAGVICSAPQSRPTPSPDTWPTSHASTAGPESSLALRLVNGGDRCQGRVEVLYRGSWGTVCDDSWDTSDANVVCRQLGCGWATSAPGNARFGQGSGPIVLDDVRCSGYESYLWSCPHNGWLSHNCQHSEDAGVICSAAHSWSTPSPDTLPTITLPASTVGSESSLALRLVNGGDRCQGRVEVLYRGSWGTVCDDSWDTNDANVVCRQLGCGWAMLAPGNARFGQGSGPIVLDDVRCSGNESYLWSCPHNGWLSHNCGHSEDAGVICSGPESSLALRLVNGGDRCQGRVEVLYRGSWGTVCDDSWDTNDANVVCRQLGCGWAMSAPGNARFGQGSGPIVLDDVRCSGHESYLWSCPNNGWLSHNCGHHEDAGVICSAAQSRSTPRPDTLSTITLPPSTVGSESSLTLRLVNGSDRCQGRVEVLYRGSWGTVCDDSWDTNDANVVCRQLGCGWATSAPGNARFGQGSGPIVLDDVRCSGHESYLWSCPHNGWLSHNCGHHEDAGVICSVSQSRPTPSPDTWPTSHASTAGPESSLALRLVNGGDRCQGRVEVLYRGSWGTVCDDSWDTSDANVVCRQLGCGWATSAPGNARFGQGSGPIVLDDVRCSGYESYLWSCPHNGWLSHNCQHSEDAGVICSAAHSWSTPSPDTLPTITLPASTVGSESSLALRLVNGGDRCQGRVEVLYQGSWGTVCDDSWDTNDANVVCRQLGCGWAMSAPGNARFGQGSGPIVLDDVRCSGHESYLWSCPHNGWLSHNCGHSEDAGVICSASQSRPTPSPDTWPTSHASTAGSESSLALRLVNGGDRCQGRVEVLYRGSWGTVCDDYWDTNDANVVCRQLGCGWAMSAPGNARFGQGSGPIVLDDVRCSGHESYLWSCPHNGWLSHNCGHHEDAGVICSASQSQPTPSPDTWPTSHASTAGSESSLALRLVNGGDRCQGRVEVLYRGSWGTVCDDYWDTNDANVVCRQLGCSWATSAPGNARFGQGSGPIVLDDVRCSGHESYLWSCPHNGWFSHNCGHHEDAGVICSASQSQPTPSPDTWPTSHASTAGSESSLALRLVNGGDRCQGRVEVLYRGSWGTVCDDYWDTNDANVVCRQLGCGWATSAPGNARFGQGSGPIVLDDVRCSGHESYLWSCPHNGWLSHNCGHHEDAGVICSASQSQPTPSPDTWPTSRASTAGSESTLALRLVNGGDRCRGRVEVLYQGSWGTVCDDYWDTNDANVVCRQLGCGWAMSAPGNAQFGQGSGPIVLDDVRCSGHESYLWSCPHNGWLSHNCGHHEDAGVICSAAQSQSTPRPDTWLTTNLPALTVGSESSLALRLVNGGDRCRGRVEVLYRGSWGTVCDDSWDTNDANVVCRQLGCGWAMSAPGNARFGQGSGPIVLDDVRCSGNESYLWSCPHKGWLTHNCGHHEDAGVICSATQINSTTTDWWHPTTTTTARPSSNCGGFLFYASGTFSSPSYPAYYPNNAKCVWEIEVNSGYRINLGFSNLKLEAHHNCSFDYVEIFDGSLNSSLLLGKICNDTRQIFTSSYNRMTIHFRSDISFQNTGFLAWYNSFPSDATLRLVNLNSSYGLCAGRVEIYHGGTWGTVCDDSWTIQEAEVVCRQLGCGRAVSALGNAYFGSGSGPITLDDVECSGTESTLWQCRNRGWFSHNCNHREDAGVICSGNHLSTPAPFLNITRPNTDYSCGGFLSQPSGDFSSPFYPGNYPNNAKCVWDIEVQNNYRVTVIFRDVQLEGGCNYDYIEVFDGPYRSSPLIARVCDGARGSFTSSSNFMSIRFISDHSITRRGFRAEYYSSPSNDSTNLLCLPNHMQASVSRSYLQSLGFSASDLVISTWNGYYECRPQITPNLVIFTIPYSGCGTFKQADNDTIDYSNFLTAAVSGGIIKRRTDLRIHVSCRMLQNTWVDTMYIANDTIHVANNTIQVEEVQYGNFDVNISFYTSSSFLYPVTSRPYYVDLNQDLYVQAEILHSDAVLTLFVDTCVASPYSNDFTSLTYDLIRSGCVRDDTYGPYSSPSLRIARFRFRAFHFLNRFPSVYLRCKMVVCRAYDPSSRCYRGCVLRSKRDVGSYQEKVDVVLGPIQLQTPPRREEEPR

As to `OC[C@H]1O[C@H](O[C@H]2[C@H](O)[C@@H](O)C(O)O[C@@H]2CO)[C@H](O)[C@@H](O)[C@@H]1O` (mixture of isomers) [Maltose], on DMBT1pbs1 (substance 1-500 mM, pH co), the “Aggregation of E. coli” value was “+++” and the “Aggregation of S. gordonii” value was “+++”.
With `CN=[N+](C)[O-]` [Azoxymethane (AOM), Azoxymethane], at DMBT1pbs1 (substance 1-500 mM, pH co), the “Aggregation of E. coli” value is “+++” and the “Aggregation of S. gordonii” value is on record as “+++”.
For `[Ba+2].[OH-].[OH-]` [BaOH], at DMBT1pbs1 (substance 5-50 mM, pH co), the “Aggregation of E. coli” value was “+++” and the “Aggregation of S. gordonii” value was “+++”.
On to `NC(=O)CC[C@H](N)C(=O)O` [Glutamine], for which, on DMBT1pbs1 (substance 1-250 mM, pH co), the “Aggregation of E. coli” value is listed as “+++” and the “Aggregation of S. gordonii” value is “+++”.
On to `O=P([O-])([O-])O.[K+].[K+]` [K2HPO4], for which, at DMBT1pbs1 (substance 1 mM, pH co), the “Aggregation of E. coli” value is “++” and the “Aggregation of S. gordonii” value was “++”.
As for `O=P([O-])(O)O.[K+]` [KH2 PO4], on DMBT1pbs1 (substance 1-10 mM, pH co), the “Aggregation of E. coli” value was “+” and the “Aggregation of S. gordonii” value is “+”.
As for `O=[N+]([O-])[O-].[K+]` [KNO3], at DMBT1pbs1 (substance 500 mM, pH co), the “Aggregation of E. coli” value is reported as “+” and the “Aggregation of S. gordonii” value is “+”. On DMBT1pbs1 (substance 1-100 mM, pH co), the “Aggregation of E. coli” value is “+++” and the “Aggregation of S. gordonii” value is on record as “+++”.
Turning to `CCN(CC)N=O` [N-nitrosodiethylamine (DEN), N-nitrosodiethylamine], the “Aggregation of E. coli” value at DMBT1pbs1 (substance 1-50 mM, pH co) was “+++”; on DMBT1pbs1 (substance 100-500 mM, pH co), “++”. Also, the “Aggregation of S. gordonii” value at DMBT1pbs1 (substance 1-50 mM, pH co) is reported as “+++”; on DMBT1pbs1 (substance 100-500 mM, pH co), “++”.
On to `O=S(=O)([O-])[O-].[Na+].[Na+]` [Na2SO4], for which, on DMBT1pbs1 (substance 1 mM, pH co), the “Aggregation of E. coli” value was “+” and the “Aggregation of S. gordonii” value was “+”. Further, on DMBT1pbs1 (substance 50-500 mM, pH co), the “Aggregation of E. coli” value is reported as “−” and the “Aggregation of S. gordonii” value was “−”.
`O=P([O-])([O-])[O-].[Na+].[Na+].[Na+]` [Na3PO4]: at DMBT1pbs1 (substance 1 mM, pH co), the “Aggregation of E. coli” value is recorded as “++” and the “Aggregation of S. gordonii” value was “++”.
Turning to `[Cl-].[Na+]` [NaCL], at DMBT1pbs1, the “Aggregation of E. coli” value is “+++ and +”; the “Aggregation of S. gordonii” value is “+++ and +”.
Take `[Na+].[OH-]` [NaOH]: on DMBT1pbs1 (substance 5-50 mM, pH co), the “Aggregation of E. coli” value was “+++” and the “Aggregation of S. gordonii” value is “+++”.
On to `OC[C@H]1O[C@@](CO)(O[C@H]2O[C@H](CO)[C@@H](O)[C@H](O)[C@H]2O)[C@@H](O)[C@@H]1O` [Sucrose], for which, at DMBT1pbs1 (substance 1-500 mM, pH co), the “Aggregation of E. coli” value is recorded as “+++” and the “Aggregation of S. gordonii” value is listed as “+++”.
As to `Nc1ncnc2c1ncn2[C@H]1C[C@H](O)[C@@H](COP(=O)(O)OP(=O)(O)OP(=O)(O)O)O1` [dATP], at DMBT1pbs1 (substance 1-8 mM, pH co), the “Aggregation of E. coli” value is “++” and the “Aggregation of S. gordonii” value is listed as “++”.
As for `Nc1ccn([C@H]2C[C@H](O)[C@@H](COP(=O)(O)OP(=O)(O)OP(=O)(O)O)O2)c(=O)n1` [dCTP], at DMBT1pbs1 (substance 1-8 mM, pH co), the “Aggregation of E. coli” value is recorded as “++” and the “Aggregation of S. gordonii” value was “++”.
In the case of `Nc1nc2c(ncn2[C@H]2C[C@H](O)[C@@H](COP(=O)(O)OP(=O)(O)OP(=O)(O)O)O2)c(=O)[nH]1` [dGTP], on DMBT1pbs1 (substance 1-8 mM, pH co), the “Aggregation of E. coli” value is “++” and the “Aggregation of S. gordonii” value is given as “++”.
As for `Cc1cn([C@H]2C[C@H](O)[C@@H](COP(=O)(O)OP(=O)(O)OP(=O)(O)O)O2)c(=O)[nH]c1=O` [dTTP], on DMBT1pbs1 (substance 1-8 mM, pH co), the “Aggregation of E. coli” value was “++” and the “Aggregation of S. gordonii” value is on record as “++”.
Turning to Aprolinin, on DMBT1pbs1 (substance 1-5 mg/ml, pH co), the “Aggregation of E. coli” value is recorded as “+++” and the “Aggregation of S. gordonii” value is recorded as “+++”.
Chondroitin sulfate B: at DMBT1pbs1 (substance 1-5 mg/ml, pH co), the “Aggregation of E. coli” value was “−” and the “Aggregation of S. gordonii” value is “−”.
On to “DMBT1: purified DMBT1 from saliva (salivary agglutinin)”, for which, in the assay with Salmonella typhimurium, the “binding of Salmonella typhimurium chemotypes” value is “Enhanced binding of the Rd1 and Re chemotype”.
Regarding Heparan sulfate, at DMBT1pbs1 (substance 1-5 mg/ml, pH co), the “Aggregation of E. coli” value is on record as “−” and the “Aggregation of S. gordonii” value is “−”.
As for “NH2-QGRVEVLYRGSWGTVC-COOH (H-QGRVEVLYRGSWGTVC-OH) [DMBT1-SRCRP2]”, the “binding of Salmonella typhimurium chemotypes” value in the assay with Salmonella typhimurium was “Enhanced binding of the Rd1 and Re chemotype”.
As to dextran, the “inhibition of rDMBT1 binding to immobilized HIV-gp120” value in assay [1] was “but not dextran, which lacks the sulfate groups, exerted an inhibitory effect”.

These data come from patent publication US8017124B2, “Use of DMBT1 for capturing sulphate and phosphate group exposing agents” (priority 2004, dated 2011).
